In US20240287545A1, “Improved lysis procedures” (uniQure biopharma B.V., priority 2021, published 2024):

Test system: baculovirus
Experiment: TCID50 assay of infectious baculovirus titer after lysis (baculovirus clearance)
Format: cell-based
Conditions: for baculovirus clearance, TCID50 results: study 1, after detergent treatment (FIG. 3); for baculovirus clearance, TCID50 samples: study 2, CLB, all concentrations tested (0.25% through 1%), bulk material 7.8 log TCID50/mL
Description: A reduction in titer of a rod-like shaped virus, i.e., the factor by which the titer of the virus to be removed is decreased, is preferably at least 5 logs, e.g. after a mixed population of parvoviral particles and 10×10^1 baculoviral virions had been separated in accordance with a method of the invention, no baculoviral virions were then detected in the filtrate. Preferably, the reduction in titer of a rod-like shaped virus that is achieved by a method of the invention is at least 5.5 logs, at least 6 logs, at least 6.5 logs, at least 7 logs, at least 8 logs, at least 9 logs, most preferably at least 10 logs. The titer can be determined by general methods known in the art, such as for example by a Tissue Culture Infectious Dose 50% (TCID50) assay. For example, the infectious baculovirus titer of a population of baculoviral virions in a sample can be determined using a TCID50 assay. This method is based on the infection of monolayers of Sf9 insect cells with infectious baculovirus in a positive control sample. A serial dilution in culture medium of the positive control sample is used to infect the cells. The cells are incubated at +28° C. for 7 days. Subsequently, the supernatants are transferred to newly prepared plates with monolayers of Sf9 insect cells and incubated at +28° C. for 7 days. As infection proceeds, the infected cells are not able to remain attached to each other and to the plate surface and form loose cells, i.e., show cytopathogenic effect (CPE), which can be observed microscopically. The titer in log 10 TCID50/mL is calculated using the Spearman-KArber method.
Analytics performed on samples during these studies included: qPCR to determine vector genome copies (GC) concentration (GC/mL), SEC-HPLC was used to determine total particle (TP) content (TP/mL) which includes empty and full particles which can only be done of samples after affinity chromatography. A TCID50 assay is a measure of infectious baculovirus titer and is used to test clearance of baculovirus after the lysis step where the detergent is added. Potency was determined based on the ability of the product to mediate production of active transgene polypeptide product (here FIX) by Huh-7 cells as compared to a reference sample. Huh-7 cells are infected and cultured to allow production of transgene polypeptide which is then quantified using a commercially obtained activity assay (221805 or 221806 from Hyphen Biomed). LDAO clearance in the drug substance (DS) was measured with an outsourced commercially available chromatographic method.
4.1 different surfactants can be used This first study involved crude bulk material generation using a shaker flask-based protocol following the process outlined in Example 1, until affinity chromatography; where the batch binding method was used. […]

## CCCCCCCCCCCCO[C@@H]1O[C@H](CO)[C@@H](O[C@H]2O[C@H](CO)[C@@H](O)[C@H](O)[C@H]2O)[C@H](O)[C@H]1O [DDM, n-dodecyl-beta-D-maltoside]
  baculovirus clearance, TCID50 results: below the limit of detection
  baculovirus clearance, TCID50 samples: below the limit of detection

## CCCCCCCCCCCC[N+](C)(C)[O-] [LDAO, lauryldimethylamine oxide]
  baculovirus clearance, TCID50 results: below the limit of detection
  baculovirus clearance, TCID50 samples: below the limit of detection
